Holding throughout (format): cell-based
For experiment [1], the system named is MCF7 cells. Nature of the experiment: Caspase-3/7 apoptosis assay, MCF7. The following applies: 1.25, 2.5, 5 μM. An excerpt: This example covers anti-invasion, apoptosis, and toxicity assays for various endoxifen-related compounds against multiple cancer cell lines. FIGS. 90A-F are plots that summarize results of proliferation assays for multiple cancer cell lines (MCF7, T47D, UCD4, and UCD12) in the presence of varying doses of endoxifen and multiple endoxifen-related compounds. FIGS. 91A-C are plots that summarize results of wound confluence measurements from scratch wound assays on T47D cells in the presence of 1.25 μM (FIG. 91A), 2.5 μM (FIG. 91B), and 5 μM (FIG. 91C) endoxifen and multiple endoxifen-related compounds. FIGS. 92A-C are plots that summarize results of wound density measurements from scratch wound assays on T47D cells in the presence of 1.25 μM (FIG. 92A), 2.5 μM (FIG. 92B), and 5 μM (FIG. 92C) endoxifen and multiple endoxifen-related compounds. FIGS. 93A-C are plots that summarize results of wound confluence measurements from scratch wound assays on MCF7 cells in the presence of 1.25 μM (FIG. 93A), 2.5 μM (FIG. 93B), and 5 μM (FIG. 93C) endoxifen and multiple endoxifen-related compounds. FIGS. 94A-C are plots that summarize results of wound density measurements from scratch wound assays on MCF7 cells in the presence of 1.25 μM (FIG. 94A), 2.5 μM (FIG. 94B), and 5 μM (FIG. 94C) endoxifen and multiple endoxifen-related compounds. […]

Experiment [2] has as its system MCF7 cells. The experiment in a line: Apoptosis induction, MCF7, Example 29. The following applies: 1-5 μM; p<0.0001 vs. vehicle; p<0.0001 vs. (Z)-endoxifen.
Experiment [3] deals with T47D cancer cells. Nature of the experiment: Cell cycle progression assay. The following applies: higher concentration (2.5, 5 μM). The method, then: This example covers cell cycle progression assays with endoxifen and multiple endoxifen-related compounds on T47D cancer cells. FIGS. 63A-G are plots that show absolute cell counts for cells in different cell cycle phases (G1 through S; G1; and S, G2, and M) following treatment with vehicle (DMSO) or 1.25 μM endoxifen, Compound 7b, Compound 7a, Compound 5b, Compound 5a, and Compound 3, respectively. FIGS. 64A-G are plots that show percent cell counts for cells in different cell cycle phases following treatment with vehicle or 1.25 μM endoxifen, Compound 7b, Compound 7a, Compound 5b, Compound 5a, and Compound 3, respectively. FIGS. 65A-G are plots that show absolute cell counts for cells in different cell cycle phases following treatment with vehicle or 2.5 μM endoxifen, Compound 7b, Compound 7a, Compound 5b, Compound 5a, and Compound 3, respectively. FIGS. 66A-G are plots that show percent cell counts for cells in different cell cycle phases following treatment with vehicle or 2.5 μM endoxifen, Compound 7b, Compound 7a, Compound 5b, Compound 5a, and Compound 3, respectively. FIGS. 67A-G are plots that show absolute cell counts for cells in different cell cycle phases following treatment with vehicle or 5 μM endoxifen, Compound 7b, Compound 7a, Compound 5b, Compound 5a, and Compound 3, respectively. […]

Experiment [4] deals with T47D cells. Nature of the experiment: 2D culture proliferation, T47D. An excerpt: (§1) Approximately 80% of breast cancers express estrogen receptor alpha (ERα, ESR1) which drives cancer progression. […] (Z)-Endoxifen (ENDX), an active metabolite of tamoxifen, is a potent orally bioavailable selective estrogen receptor modulator with a favorable safety profile now under development for breast health applications. Its synthesis yields endoxifen-related byproduct new chemical entities (NCE), including Compound 7b, Compound 7a, Compound 5b and Compound 5a. This study compared the anti-estrogenic effects of these compounds to (Z)-endoxifen in ERα+ breast cancer cell lines (MCF7, T47D, UCD12), including those with ESR1 mutations (Y537S, D538G) linked to endocrine resistance.

For experiment [5], the system named is ERα+ breast cancer cell lines. Nature of the experiment: Cell cycle arrest, Example 29.
Description: as §1

Experiment [6] has as its system estrogen-induced and ERα-mediated activation of an estrogen response element (ERE) luciferase reporter construct in ER+ T47D cells. Nature of the experiment: Luciferase (ERE reporter) agonist/antagonist assay, ER+ cells.
In experiment [7] the test system is T47D cells. Nature of the experiment: Crystal violet cell viability assay, T47D. The method, then: This example covers the cell toxicities of endoxifen and various endoxifen-related compounds. The toxicities of these compounds were measured using crystal violet cell viabilities assays per the protocols outlined in Feoktistova et al., Cold Spring Harb Protoc., 2016; 4 (PMID: 27037069). This assay utilizes crystal violet, which is a triarylmethane dye that binds to ribose type molecules such as DNA in nuclei. The amount of crystal violet staining is proportional to the cell biomass that is attached to the plate and thus this cell biomass can be used to infer levels of cell viability and cytotoxicity in control/experimental conditions. […]
FIGS. 34-39 summarize crystal violet assays with endoxifen (top-left plot in each figure), Compound 7b (top-middle plot in each figure), Compound 7a (top-right plot in each figure), Compound 5b (bottom-left plot in each figure), Compound 5a (bottom-middle plot in each figure), and Compound 3 (bottom-right plot in each figure). Each individual plot provides normalized absorbance (corresponding to cell concentration) over 25 nM to 5 μM concentration ranges, with the rightmost entry in each plot corresponding to vehicle treatment. […]

Experiment [8] deals with UCD12 cells. Nature of the experiment: 2D culture proliferation, UCD12. The following applies: for anti-proliferative activity compared with (Z)-endoxifen: estrogen-deficient conditions.
Description: as §1

In experiment [9] the test system is ERα+ breast cancer cell lines in 3D cultures. Nature of the experiment: 3D culture cancer cell proliferation. The conditions noted are these: ~1 μM.
Description: as §1

The test system of experiment [10] is ERα+ breast cancer cell lines. Nature of the experiment: RT-qPCR analysis. The following applies: 0.1 μM. On the technique in general: Real-time PCR tracks product formation cycle by cycle.
Experiment [11] concerns T47D cells. Nature of the experiment: Apoptosis induction, T47D, Example 29. The following applies: p<0.0001 vs. vehicle.
[12] abbreviates: 2D cultures, estrogen-containing media.

From US20250241876A1, “ANTI-TUMOR COMPOUNDS AND METHODS OF USE THEREOF AND SYNTHESIS THEREOF” (Atossa Therapeutics, Inc., priority 2023, published 2025) come the findings set out here.

Take `CC/C(=C(/c1ccc(O)cc1)c1ccc(OCC[N+](C)(C)C)cc1)c1ccccc1` [Compound 5b]: the “potency at inducing the apoptosis of MCF7 cells” value in experiment [1] is given as “equal potencies”. Also, the “apoptosis induction in MCF7 cells” value in [2] is “surpassing (Z)-endoxifen”. Moreover, the “cell cycle inhibition compared with endoxifen” value in experiment [3] was “slightly lower cell cycle inhibition activity than endoxifen”.

Take `CC/C(=C(\c1ccc(O)cc1)c1ccc(OCC[N+](C)(C)C)cc1)c1ccccc1` [Compound 5a]: the “anti-proliferative effect, ranking” value in [4] (setting [12]) is given as “strongest effects”. Further, the “G1 cell cycle arrest” value in experiment [5] is listed as “most effective”. In addition, in experiment [1], the “potency at inducing the apoptosis of MCF7 cells” value is “equal potencies”. Moreover, the “agonist or antagonist behavior (luciferase assay)” value in [6] (T47D cell lines, FIGS. 72-74) was “strong antagonistic behavior”. The “apoptosis induction in MCF7 cells” value in experiment [2] was “surpassing (Z)-endoxifen”. For the same compound, the “activity against T47D cells compared with endoxifen” value in [7] (micromolar concentrations (FIG. 41)) is recorded as “greater activity than endoxifen”; in [7] (sub-100 nanomolar concentrations (FIG. 41)) it was “lower activity against T47D cells than endoxifen”. In [8], the “anti-proliferative activity compared with (Z)-endoxifen” value is given as “more effective”. Further, in experiment [9], the “potency in 3D cultures, ranking” value is reported as “comparable, superior potency”. In addition, the “cell cycle inhibition compared with endoxifen” value in experiment [3] is “slightly lower cell cycle inhibition activity than endoxifen”.

As to `CC/C(=C(\c1ccc(O)cc1)c1ccc(OCCN(C)C(C)=O)cc1)c1ccccc1` [Compound 7a], in experiment [10], the “RT-qPCR analysis, potency ranking” value was “most potent”. Moreover, the “anti-proliferative activity compared with (Z)-endoxifen” value in [4] (estrogen-deficient conditions) and in experiment [8] was “more effective” in each case. Further, the “anti-proliferative effects in ER+ cells compared with endoxifen” value in [6] (CSS+E2 media) is “closely resemble that of endoxifen”. Further, the “apoptosis induction in MCF7 cells” value in [2] is reported as “surpassing (Z)-endoxifen”. Besides, the “apoptosis induction in T47D cells” value in experiment [11] is on record as “significantly induced”. For the same compound, the “anti-proliferative effect, ranking” value in experiment [8] (setting [12]) is on record as “strongest effects”.
